Reference: paper PMC5429769, “Rational development of Stafib-2: a selective, nanomolar inhibitor of the transcription factor STAT5b” (Scientific Reports, 2017)
“Also recorded” adds a separate entry of the source.

Legend:
STAT5b SH2 domain = biological target: T1, STAT5b SH2 domain (Homo sapiens, UniProt P51692); experiment: Fluorescence polarization assay, STAT5b SH2 domain; assay type: binding; conditions: for Ki: converted from IC50 using the published equation, n = 3; for Ki / IC50: mean ± s.d.; for IC50: fluorescence polarization, three independent experiments
T1 sequence (P51692 1-787): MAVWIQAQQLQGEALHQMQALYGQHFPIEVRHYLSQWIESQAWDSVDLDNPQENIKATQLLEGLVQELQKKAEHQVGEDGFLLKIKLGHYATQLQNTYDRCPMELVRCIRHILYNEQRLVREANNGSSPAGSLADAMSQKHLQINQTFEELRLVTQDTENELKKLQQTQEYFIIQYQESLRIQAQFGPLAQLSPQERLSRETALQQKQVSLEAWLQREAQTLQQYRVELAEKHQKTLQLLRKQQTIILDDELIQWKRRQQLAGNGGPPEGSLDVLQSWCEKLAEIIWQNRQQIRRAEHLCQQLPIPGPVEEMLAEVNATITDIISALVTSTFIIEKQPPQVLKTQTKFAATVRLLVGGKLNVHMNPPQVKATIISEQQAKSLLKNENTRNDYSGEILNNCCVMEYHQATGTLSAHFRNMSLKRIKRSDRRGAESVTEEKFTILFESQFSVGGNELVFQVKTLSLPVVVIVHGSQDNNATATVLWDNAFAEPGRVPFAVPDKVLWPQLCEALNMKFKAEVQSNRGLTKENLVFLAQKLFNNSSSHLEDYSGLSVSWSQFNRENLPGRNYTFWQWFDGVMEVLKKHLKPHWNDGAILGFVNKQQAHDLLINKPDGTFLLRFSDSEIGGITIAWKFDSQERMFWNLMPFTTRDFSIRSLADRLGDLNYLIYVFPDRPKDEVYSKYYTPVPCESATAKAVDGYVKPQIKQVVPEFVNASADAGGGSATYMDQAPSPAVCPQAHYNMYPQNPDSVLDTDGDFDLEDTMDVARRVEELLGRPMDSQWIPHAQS

STAT5a SH2 domain = biological target: T2, STAT5a SH2 domain (Homo sapiens, UniProt P42229); experiment: Fluorescence polarization assay, STAT5a SH2 domain; assay type: binding; conditions: mean ± s.d.; for Ki: converted from IC50 using the published equation, n = 3; for IC50: fluorescence polarization, three independent experiments
T2 sequence (P42229 1-794): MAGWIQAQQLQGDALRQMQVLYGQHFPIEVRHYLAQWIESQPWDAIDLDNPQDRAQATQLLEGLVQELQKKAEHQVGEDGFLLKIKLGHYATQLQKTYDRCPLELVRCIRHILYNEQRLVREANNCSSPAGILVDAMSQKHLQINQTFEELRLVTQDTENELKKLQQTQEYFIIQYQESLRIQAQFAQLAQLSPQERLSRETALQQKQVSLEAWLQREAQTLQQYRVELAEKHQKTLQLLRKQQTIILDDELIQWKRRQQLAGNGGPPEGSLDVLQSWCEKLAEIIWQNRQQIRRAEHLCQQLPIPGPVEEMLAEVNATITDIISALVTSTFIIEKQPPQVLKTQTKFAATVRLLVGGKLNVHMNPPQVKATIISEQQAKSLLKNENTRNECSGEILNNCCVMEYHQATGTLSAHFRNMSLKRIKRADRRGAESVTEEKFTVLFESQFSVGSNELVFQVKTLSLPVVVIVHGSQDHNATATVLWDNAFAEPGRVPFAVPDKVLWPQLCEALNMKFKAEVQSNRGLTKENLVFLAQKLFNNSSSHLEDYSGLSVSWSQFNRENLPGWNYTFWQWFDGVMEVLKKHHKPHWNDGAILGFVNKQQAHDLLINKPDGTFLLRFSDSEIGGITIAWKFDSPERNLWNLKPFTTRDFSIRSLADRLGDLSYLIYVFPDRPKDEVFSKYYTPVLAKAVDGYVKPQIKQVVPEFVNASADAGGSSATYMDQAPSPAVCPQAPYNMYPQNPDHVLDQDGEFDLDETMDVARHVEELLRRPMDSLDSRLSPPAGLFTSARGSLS

STAT5b-GFP [1] = experiment: STAT5b Tyr699 phosphorylation in STAT5b-GFP-transfected K562 cells (Western blot); assay type: cell-based, human; conditions: STAT5b-GFP-transfected K562 cells, 4 h, result in words
STAT5a-GFP = experiment: STAT5a Tyr694 phosphorylation in STAT5a-GFP-transfected K562 cells (Western blot); assay type: cell-based, human; conditions: 4 h, result in words
endogenous STAT5 = experiment: Tyrosine phosphorylation of endogenous total STAT5 in STAT5a/b-GFP-transfected K562 cells; assay type: cell-based, human; conditions: result in words
MDA-MB-231 cells = experiment: Apoptosis assay (Annexin V / 7-AAD flow cytometry), MDA-MB-231 cells; assay type: cell-based; conditions: MDA-MB-231 cells (STAT5-independent), 48 h, result in words
STAT5b-GFP [2] = biological target: T3, STAT5b-GFP (Homo sapiens, UniProt P51692); experiment: STAT5b Tyr699 phosphorylation in STAT5b-GFP-transfected K562 cells (Western blot); assay type: cell-based; conditions: STAT5b-GFP-transfected K562 cells
T3 sequence (P51692 1-787): T1 sequence (P51692 1-787)

K562 cells = experiment: Apoptosis assay (Annexin V / 7-AAD flow cytometry), K562 cells; assay type: cell-based, human; conditions: untransfected K562 cells, 48 h, result in words

SMILES | Ki (STAT5b SH2 domain) [µM] | IC50 (STAT5b SH2 domain) [µM] | Ki (STAT5a SH2 domain) [µM] | IC50 (STAT5a SH2 domain) [µM] | inhibition of STAT5a phosphorylation (STAT5a-GFP) | other results
CC(C)(C)C(=O)OCOP(=O)(Cc1ccccc1CP(=O)(OCOC(=O)C(C)(C)C)OCOC(=O)C(C)(C)C)OCOC(=O)C(C)(C)C [compound 9, reference compound] |  |  |  |  | lack of inhibition | inhibition of STAT5b phosphorylation (STAT5b-GFP [1]): lack of inhibition
CC(C)(C)C(=O)OCOP(=O)(OCOC(=O)C(C)(C)C)Oc1ccc(CNC(=O)COc2ccc(C(=O)Nc3ccc(Oc4ccccc4)cc3)cc2)cc1OP(=O)(OCOC(=O)C(C)(C)C)OCOC(=O)C(C)(C)C [compound 8, ((((4-((2-(4-((4-Phenoxyphenyl)carbamoyl)phenoxy)acetamido)methyl)-1,2-phenylene)bis(oxy))bis(oxo-l5-phosphanetriyl))tetrakis(oxy))tetrakis(methylene) tetrakis(2,2-dimethylpropanoate)] |  |  |  |  | not significantly reduced; also recorded: not inhibited | inhibition of phosphorylation of endogenous STAT5 (endogenous STAT5): inhibited; apoptotic rate (MDA-MB-231 cells): does not increase; also recorded: not increased; fold more active against STAT5b phosphorylation than the pivaloyloxymethylesters of 2 and of Capstafin (STAT5b-GFP [2]): 2.5 fold; inhibition of STAT5b phosphorylation (STAT5b-GFP [2]; 4 h, result in words): Dose-dependent inhibition; apoptotic rate (K562 cells): dose-dependent increase; also recorded: increased; inhibition of STAT5a phosphorylation (STAT5a-GFP; listed as Pomstafib-2): without significantly affecting
O=C(COc1ccc(C(=O)Nc2ccc(Oc3ccccc3)cc2)cc1)NCc1ccc(O)c(O)c1 [compound 7] |  |  |  |  |  | STAT5b inhibition (STAT5b SH2 domain; at 80 µM): lack of activity; also recorded: no inhibition at 80 µM

Now from value to compound, other results behind:

Ki (STAT5b SH2 domain) [µM] | IC50 (STAT5b SH2 domain) [µM] | Ki (STAT5a SH2 domain) [µM] | IC50 (STAT5a SH2 domain) [µM] | SMILES | inhibition of STAT5a phosphorylation (STAT5a-GFP) | other results
0.11 ± 0.01 | 0.28 ± 0.01 | 4.8 ± 0.1 | 9.7 ± 0.3 | O=C(COc1ccc(C(=O)Nc2ccccc2)cc1)NCc1ccc(OP(=O)(O)O)c(OP(=O)(O)O)c1 [compound 5] |  | 
0.093 ± 0.003 | 0.19 ± 0.01 | 2.9 ± 0.1 | 5.8 ± 0.3 | O=C(COc1ccc2cc(C(=O)Nc3ccc(Oc4ccccc4)cc3)ccc2c1)NCc1ccc(OP(=O)(O)O)c(OP(=O)(O)O)c1 [compound 3] |  | fold less active than 2 (STAT5b SH2 domain; STAT5b Ki relative to 2): 2 fold
